Experimental data taken from PMC9133015 (Nature Communications, 2022).
Where “and” joins values, the source holds several entries; their conditions need not be identical. Equal entries are not always repeated.

What was measured:
Assay in all cases: Kinase inhibitor specificity profiling (Reaction Biology Corporation)
Format in all cases: biochemical
Set-up in all cases: % Enzyme Activity (relative to DMSO controls): concentration or dose not given beside the values
[1] = target: T1, panel of 370 protein kinases (Homo sapiens, UniProt Q00536); conditions: 2 h, kinase CDK16/cyclin Y (PCTAIRE); read-out: % Enzyme Activity (relative to DMSO controls)
T1 construct: purchased Reaction Biology Corporation (assay service)

[2] = target: T2, panel of 370 protein kinases (Homo sapiens, UniProt Q8TDX7); conditions: 2 h, kinase NEK7; read-out: % Enzyme Activity (relative to DMSO controls)
T2 construct: purchased Reaction Biology Corporation (assay service)

[3] = target: T3, panel of 370 protein kinases (Homo sapiens, UniProt Q13188); conditions: 2 h, kinase MST2/STK3; read-out: % Enzyme Activity (relative to DMSO controls)
T3 construct: purchased Reaction Biology Corporation (assay service)

[4] = target: T4, panel of 370 protein kinases (Homo sapiens, UniProt P51813); conditions: 2 h, kinase BMX/ETK; read-out: % Enzyme Activity (relative to DMSO controls)
T4 construct: purchased Reaction Biology Corporation (assay service)

[5] = target: T5, panel of 370 protein kinases (Homo sapiens, UniProt O75676); conditions: 2 h, kinase MSK2/RPS6KA4; read-out: % Enzyme Activity (relative to DMSO controls)
T5 construct: purchased Reaction Biology Corporation (assay service)

[6] = target: T6, panel of 370 protein kinases (Homo sapiens, UniProt Q96PN8); conditions: 2 h, kinase TSSK3/STK22C; read-out: % Enzyme Activity (relative to DMSO controls)
T6 construct: purchased Reaction Biology Corporation (assay service)

[7] = target: T7, panel of 370 protein kinases (Homo sapiens, UniProt P53671); conditions: 2 h, kinase LIMK2; read-out: % Enzyme Activity (relative to DMSO controls)
T7 construct: purchased Reaction Biology Corporation (assay service)

[8] = target: T8, panel of 370 protein kinases (Homo sapiens, UniProt Q6XUX3); conditions: 2 h, kinase RIPK5; read-out: % Enzyme Activity (relative to DMSO controls)
T8 construct: purchased Reaction Biology Corporation (assay service)

[9] = target: T9, panel of 370 protein kinases (Homo sapiens, UniProt O94806); conditions: 2 h, kinase PKCnu/PRKD3; read-out: % Enzyme Activity (relative to DMSO controls)
T9 construct: purchased Reaction Biology Corporation (assay service)

[10] = target: T10, panel of 370 protein kinases (Homo sapiens, UniProt Q8TF76); conditions: 2 h, kinase Haspin; read-out: % Enzyme Activity (relative to DMSO controls)
T10 construct: purchased Reaction Biology Corporation (assay service)

[11] = target: T11, panel of 370 protein kinases (Homo sapiens, UniProt Q13470); conditions: 2 h, kinase TNK1; read-out: % Enzyme Activity (relative to DMSO controls)
T11 construct: purchased Reaction Biology Corporation (assay service)

[12] = target: T12, panel of 370 protein kinases (Homo sapiens, UniProt Q13873); conditions: kinase BMPR2
T12 construct: purchased Reaction Biology Corporation (assay service)

[13] = target: T13, panel of 370 protein kinases (Homo sapiens, UniProt Q9BUB5); conditions: 2 h, kinase MNK1; read-out: % Enzyme Activity (relative to DMSO controls)
T13 construct: purchased Reaction Biology Corporation (assay service)

[14] = target: T14, panel of 370 protein kinases (Homo sapiens, UniProt P53350); conditions: 2 h, kinase PLK1; read-out: % Enzyme Activity (relative to DMSO controls)
T14 construct: purchased Reaction Biology Corporation (assay service)

[15] = target: T15, panel of 370 protein kinases (Homo sapiens, UniProt Q86V86); conditions: 2 h, kinase PIM3; read-out: % Enzyme Activity (relative to DMSO controls)
T15 construct: purchased Reaction Biology Corporation (assay service)

[16] = target: T16, panel of 370 protein kinases (Homo sapiens, UniProt P04049); conditions: 2 h, kinase RAF1; read-out: % Enzyme Activity (relative to DMSO controls)
T16 construct: purchased Reaction Biology Corporation (assay service)

[17] = target: T17, panel of 370 protein kinases (Homo sapiens, UniProt Q5S007); conditions: 2 h, kinase LRRK2; read-out: % Enzyme Activity (relative to DMSO controls)
T17 construct: purchased Reaction Biology Corporation (assay service)

[18] = target: T18, panel of 370 protein kinases (Homo sapiens, UniProt Q96PY6); conditions: 2 h, kinase NEK1; read-out: % Enzyme Activity (relative to DMSO controls)
T18 construct: purchased Reaction Biology Corporation (assay service)

[19] = target: T19, panel of 370 protein kinases (Homo sapiens, UniProt Q16288); conditions: 2 h, kinase TRKC; read-out: % Enzyme Activity (relative to DMSO controls)
T19 construct: purchased Reaction Biology Corporation (assay service)

[20] = target: T20, panel of 370 protein kinases (Homo sapiens, UniProt P07332); conditions: 2 h, kinase FES/FPS; read-out: % Enzyme Activity (relative to DMSO controls)
T20 construct: purchased Reaction Biology Corporation (assay service)

[21] = target: T21, panel of 370 protein kinases (Homo sapiens, UniProt Q09013); conditions: 2 h, kinase DMPK; read-out: % Enzyme Activity (relative to DMSO controls)
T21 construct: purchased Reaction Biology Corporation (assay service)

T12 sequence (Q13873 27-1038): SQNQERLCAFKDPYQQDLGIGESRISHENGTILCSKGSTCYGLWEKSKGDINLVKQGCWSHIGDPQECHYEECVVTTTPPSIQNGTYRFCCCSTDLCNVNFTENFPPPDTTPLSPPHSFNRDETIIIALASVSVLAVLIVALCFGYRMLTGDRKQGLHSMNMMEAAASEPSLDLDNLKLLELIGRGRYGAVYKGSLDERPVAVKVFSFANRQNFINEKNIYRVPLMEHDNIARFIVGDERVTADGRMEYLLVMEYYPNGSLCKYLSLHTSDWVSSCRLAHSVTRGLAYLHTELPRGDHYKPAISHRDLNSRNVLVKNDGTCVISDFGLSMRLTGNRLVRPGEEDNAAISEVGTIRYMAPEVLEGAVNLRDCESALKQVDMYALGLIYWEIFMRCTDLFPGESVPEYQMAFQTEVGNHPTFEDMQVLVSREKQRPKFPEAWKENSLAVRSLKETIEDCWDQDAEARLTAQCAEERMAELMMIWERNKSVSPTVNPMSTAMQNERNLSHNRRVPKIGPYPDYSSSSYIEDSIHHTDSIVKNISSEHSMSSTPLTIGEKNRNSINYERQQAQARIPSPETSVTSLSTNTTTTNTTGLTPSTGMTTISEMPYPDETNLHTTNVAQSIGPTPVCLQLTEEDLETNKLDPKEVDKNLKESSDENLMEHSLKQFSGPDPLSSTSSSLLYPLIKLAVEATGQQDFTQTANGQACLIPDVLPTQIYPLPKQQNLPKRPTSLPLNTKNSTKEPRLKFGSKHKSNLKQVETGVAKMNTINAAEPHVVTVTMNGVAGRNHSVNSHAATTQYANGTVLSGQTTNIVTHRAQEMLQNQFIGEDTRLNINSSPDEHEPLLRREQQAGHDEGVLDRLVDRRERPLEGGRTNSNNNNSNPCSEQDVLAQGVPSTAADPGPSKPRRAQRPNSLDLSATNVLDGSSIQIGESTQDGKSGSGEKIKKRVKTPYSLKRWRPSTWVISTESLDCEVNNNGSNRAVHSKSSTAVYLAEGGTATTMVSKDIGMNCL
T9 sequence (O94806 whole entry): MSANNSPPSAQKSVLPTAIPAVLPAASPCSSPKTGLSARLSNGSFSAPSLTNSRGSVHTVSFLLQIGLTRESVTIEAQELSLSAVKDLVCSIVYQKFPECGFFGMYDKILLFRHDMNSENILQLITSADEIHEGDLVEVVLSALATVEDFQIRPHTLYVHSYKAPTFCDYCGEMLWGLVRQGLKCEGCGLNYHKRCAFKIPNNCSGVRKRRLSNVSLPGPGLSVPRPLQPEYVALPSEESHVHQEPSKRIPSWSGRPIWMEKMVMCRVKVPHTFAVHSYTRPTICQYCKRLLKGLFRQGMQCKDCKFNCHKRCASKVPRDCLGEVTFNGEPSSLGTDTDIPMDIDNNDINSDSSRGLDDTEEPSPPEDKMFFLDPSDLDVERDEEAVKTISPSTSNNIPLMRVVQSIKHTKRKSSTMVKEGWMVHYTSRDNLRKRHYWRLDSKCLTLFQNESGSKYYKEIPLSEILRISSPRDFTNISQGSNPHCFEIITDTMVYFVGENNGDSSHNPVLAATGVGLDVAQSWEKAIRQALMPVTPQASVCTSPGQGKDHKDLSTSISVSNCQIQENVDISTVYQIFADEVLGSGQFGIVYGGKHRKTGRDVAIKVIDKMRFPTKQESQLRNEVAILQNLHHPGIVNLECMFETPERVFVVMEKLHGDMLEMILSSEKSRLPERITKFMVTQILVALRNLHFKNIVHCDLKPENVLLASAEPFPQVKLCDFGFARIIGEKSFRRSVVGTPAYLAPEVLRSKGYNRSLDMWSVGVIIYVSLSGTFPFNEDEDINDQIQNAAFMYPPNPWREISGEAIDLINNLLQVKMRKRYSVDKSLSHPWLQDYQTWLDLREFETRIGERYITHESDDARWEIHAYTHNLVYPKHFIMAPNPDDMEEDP
T3 sequence (Q13188 whole entry): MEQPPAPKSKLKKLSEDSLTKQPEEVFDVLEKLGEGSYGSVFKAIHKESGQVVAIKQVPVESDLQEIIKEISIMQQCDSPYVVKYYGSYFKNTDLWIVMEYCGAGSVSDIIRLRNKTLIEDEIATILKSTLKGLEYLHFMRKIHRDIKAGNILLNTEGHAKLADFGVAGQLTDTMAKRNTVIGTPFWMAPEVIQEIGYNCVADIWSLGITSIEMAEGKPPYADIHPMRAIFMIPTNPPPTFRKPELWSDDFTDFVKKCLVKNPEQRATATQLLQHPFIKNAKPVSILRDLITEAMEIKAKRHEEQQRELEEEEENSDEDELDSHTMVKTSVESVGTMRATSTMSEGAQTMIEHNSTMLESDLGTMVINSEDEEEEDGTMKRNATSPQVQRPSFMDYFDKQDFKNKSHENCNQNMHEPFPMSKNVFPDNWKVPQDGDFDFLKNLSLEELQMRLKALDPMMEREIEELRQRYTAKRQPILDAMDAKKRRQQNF
T7 sequence (P53671 whole entry): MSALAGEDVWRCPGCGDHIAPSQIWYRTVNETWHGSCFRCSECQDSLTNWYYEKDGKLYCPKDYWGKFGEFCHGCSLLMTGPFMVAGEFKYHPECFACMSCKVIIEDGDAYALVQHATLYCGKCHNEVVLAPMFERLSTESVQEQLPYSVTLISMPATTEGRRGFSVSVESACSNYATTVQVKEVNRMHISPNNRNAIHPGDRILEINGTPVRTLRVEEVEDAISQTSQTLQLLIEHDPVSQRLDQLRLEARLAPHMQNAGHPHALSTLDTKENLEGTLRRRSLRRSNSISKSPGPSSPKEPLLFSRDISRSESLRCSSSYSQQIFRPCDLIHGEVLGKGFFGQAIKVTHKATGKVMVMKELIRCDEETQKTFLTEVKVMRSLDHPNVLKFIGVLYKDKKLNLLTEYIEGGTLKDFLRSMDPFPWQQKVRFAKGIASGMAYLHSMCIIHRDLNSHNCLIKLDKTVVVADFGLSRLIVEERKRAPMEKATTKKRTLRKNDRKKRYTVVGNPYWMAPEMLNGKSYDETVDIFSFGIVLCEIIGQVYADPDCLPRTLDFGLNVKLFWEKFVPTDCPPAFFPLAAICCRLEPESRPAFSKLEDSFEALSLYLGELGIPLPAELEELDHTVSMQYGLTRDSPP
T18 sequence (Q96PY6 whole entry): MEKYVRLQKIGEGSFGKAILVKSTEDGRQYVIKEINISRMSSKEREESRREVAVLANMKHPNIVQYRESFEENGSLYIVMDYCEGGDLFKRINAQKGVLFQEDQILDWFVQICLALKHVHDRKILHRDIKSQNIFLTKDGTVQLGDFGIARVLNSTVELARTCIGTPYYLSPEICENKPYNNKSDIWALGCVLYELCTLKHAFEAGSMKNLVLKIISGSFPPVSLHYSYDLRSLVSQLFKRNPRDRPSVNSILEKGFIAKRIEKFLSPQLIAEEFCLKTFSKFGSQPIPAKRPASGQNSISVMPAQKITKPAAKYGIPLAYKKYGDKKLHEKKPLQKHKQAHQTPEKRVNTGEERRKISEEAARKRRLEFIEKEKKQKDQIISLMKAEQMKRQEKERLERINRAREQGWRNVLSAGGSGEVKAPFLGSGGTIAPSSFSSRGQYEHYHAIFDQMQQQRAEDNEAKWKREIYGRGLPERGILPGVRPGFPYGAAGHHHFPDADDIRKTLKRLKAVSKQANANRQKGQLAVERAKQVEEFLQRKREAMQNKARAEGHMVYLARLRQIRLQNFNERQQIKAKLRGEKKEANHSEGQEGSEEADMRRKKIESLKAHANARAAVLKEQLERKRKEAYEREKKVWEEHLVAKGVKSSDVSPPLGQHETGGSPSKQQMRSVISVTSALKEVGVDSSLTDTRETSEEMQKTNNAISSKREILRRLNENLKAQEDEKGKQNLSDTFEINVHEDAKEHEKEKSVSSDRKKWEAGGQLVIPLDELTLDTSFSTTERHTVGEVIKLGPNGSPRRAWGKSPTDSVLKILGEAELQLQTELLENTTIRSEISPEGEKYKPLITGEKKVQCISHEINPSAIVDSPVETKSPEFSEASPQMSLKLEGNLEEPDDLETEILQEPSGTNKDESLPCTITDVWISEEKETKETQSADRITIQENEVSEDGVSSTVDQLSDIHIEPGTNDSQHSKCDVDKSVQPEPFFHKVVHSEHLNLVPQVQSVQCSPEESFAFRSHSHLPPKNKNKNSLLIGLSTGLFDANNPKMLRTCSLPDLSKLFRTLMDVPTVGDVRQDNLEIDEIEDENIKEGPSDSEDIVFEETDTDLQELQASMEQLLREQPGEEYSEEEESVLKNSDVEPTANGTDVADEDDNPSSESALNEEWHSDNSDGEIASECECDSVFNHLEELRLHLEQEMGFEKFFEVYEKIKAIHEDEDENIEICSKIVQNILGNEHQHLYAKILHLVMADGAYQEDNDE
T11 sequence (Q13470 whole entry): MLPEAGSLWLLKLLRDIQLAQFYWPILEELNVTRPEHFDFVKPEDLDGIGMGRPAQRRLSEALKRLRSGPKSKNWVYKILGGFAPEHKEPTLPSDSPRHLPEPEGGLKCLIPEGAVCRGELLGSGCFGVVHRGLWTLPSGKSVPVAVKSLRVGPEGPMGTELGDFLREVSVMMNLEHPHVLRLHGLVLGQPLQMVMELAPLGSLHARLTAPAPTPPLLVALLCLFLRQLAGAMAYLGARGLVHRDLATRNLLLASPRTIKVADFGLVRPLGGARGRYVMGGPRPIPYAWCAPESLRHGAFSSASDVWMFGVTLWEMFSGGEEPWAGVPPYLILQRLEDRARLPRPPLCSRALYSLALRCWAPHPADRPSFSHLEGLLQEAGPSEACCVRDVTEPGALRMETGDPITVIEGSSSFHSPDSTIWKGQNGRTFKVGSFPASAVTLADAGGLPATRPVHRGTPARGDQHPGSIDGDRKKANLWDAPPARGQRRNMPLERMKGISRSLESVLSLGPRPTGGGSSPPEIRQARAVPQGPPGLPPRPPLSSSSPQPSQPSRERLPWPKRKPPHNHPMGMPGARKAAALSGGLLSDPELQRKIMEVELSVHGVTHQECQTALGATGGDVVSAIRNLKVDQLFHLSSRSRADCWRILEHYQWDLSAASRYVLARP

Work on CCN1CCN(C(=O)c2ccc(Nc3ncc(F)c(-c4ccc5nc(N(C)C)sc5c4)n3)nc2)CC1 [YK-2-69] yielded a remaining activity at 1 µM [1] of 85.7%, a remaining activity at 1 µM [2] of 96.7% and a remaining activity at 1 µM [3] of 98.9%. The remaining activity at 1 µM [4] was 80.6%, the remaining activity at 1 µM [5] was 96.2% and the remaining activity at 1 µM [6] was 94.6%. The remaining activity at 1 µM [7] was 95%, the remaining activity at 1 µM [8] was 111% and the remaining activity at 1 µM [9] was 75.6%. The remaining activity at 1 µM [10] was 99%, the remaining activity at 1 µM [11] was 95.3% and the “% Enzyme Activity (relative to DMSO controls)” value [12] was 80.68% and 76.25%. It also gave a remaining activity at 1 µM [13] of 89.6%, a remaining activity at 1 µM [14] of 115% and a remaining activity at 1 µM [15] of 55.8%. The remaining activity at 1 µM [16] was 106%, the remaining activity at 1 µM [17] was 72% and the remaining activity at 1 µM [18] was 69.2%. For the same molecule, the remaining activity at 1 µM [19] was 77.7%, the remaining activity at 1 µM [20] was 85.3% and the remaining activity at 1 µM [21] was 95.8%.
